Test results: ChEMBL document CHEMBL3885881, “DrugMatrix”

Species on record: Rattus norvegicus
Assay: DrugMatrix - Regimen: Daily Repeat
Type: toxicity, organism-based, Sprague-Dawley
Set-up: regimen Daily Repeat, gender Male, age 6-8 weeks
Conditions: in vivo, po, route oral GAVAGE, vehicle .5 % CMC; for ABSOLUTE BASOPHIL / ABSOLUTE EOSINOPHIL / ABSOLUTE LYMPHOCYTE / ABSOLUTE MONOCYTE / ABSOLUTE SEGMENTED NEUTROPHIL / BASOPHIL / EOSINOPHIL / ERYTHROCYTE COUNT / HEMATOCRIT / HEMOGLOBIN / LEUKOCYTE COUNT / LYMPHOCYTE / MEAN CORPUSCULAR HEMOGLOBIN / MEAN CORPUSCULAR HEMOGLOBIN CONCENTRATION / MEAN CORPUSCULAR VOLUME / MONOCYTE / NEUTROPHIL / NUCLEATED RED BLOOD CELLS / PLATELET COUNT: tissue Blood; for ALANINE AMINOTRANSFERASE / ALBUMIN / ALKALINE PHOSPHATASE / ASPARTATE AMINOTRANSFERASE / BLOOD UREA NITROGEN / CARBON DIOXIDE / CHLORIDE / CHOLESTEROL / CREATINE PHOSPHOKINASE / CREATININE / GLUCOSE / LACTATE DEHYDROGENASE / LIPASE / PHOSPHORUS / POTASSIUM / SODIUM / TOTAL BILIRUBIN / TOTAL PROTEIN / URIC ACID: tissue Plasma
[1] = 500 mg/kg, 72 h, dose level Low, time 3 day
[2] = 500 mg/kg, 120 h, dose level Low, time 5 day
[3] = 2000 mg/kg, 72 h, dose level High, time 3 day
[4] = 2000 mg/kg, 120 h, dose level High, time 5 day

NC[C@H]1CC[C@H](C(=O)O)CC1 [TRANEXAMIC ACID]
ABSOLUTE BASOPHIL [1]: 0 CELLS/uL | ABSOLUTE EOSINOPHIL [1]: 94.67 CELLS/uL | ABSOLUTE LYMPHOCYTE [1]: 11832.33 CELLS/uL | ABSOLUTE MONOCYTE [1]: 147 CELLS/uL | ABSOLUTE SEGMENTED NEUTROPHIL [1]: 2626 CELLS/uL | BASOPHIL [1]: 0% | EOSINOPHIL [1]: 0.67% | ERYTHROCYTE COUNT [1]: 5.82 x10E6/uL | HEMATOCRIT [1]: 36.4% | HEMOGLOBIN [1]: 14.33 G/DL | LEUKOCYTE COUNT [1]: 14.7 x10E3/uL | LYMPHOCYTE [1]: 80.33% | MEAN CORPUSCULAR HEMOGLOBIN [1]: 24.63 pg | MEAN CORPUSCULAR HEMOGLOBIN CONCENTRATION [1]: 39.43 G/DL | MEAN CORPUSCULAR VOLUME [1]: 62.5 fL | MONOCYTE [1]: 1% | NEUTROPHIL [1]: 18% | NUCLEATED RED BLOOD CELLS [1]: 0 /100WBC | PLATELET COUNT [1]: 1287 x10E3/uL | ALANINE AMINOTRANSFERASE [1]: 49.33 u/L | ALBUMIN [1]: 4.3 G/DL | ALKALINE PHOSPHATASE [1]: 364.33 u/L | ASPARTATE AMINOTRANSFERASE [1]: 83 u/L | BLOOD UREA NITROGEN [1]: 13.67 mg/dL | CARBON DIOXIDE [1]: 25.33 mmol/L | CHLORIDE [1]: 102 MEQ/L | CHOLESTEROL [1]: 81 mg/dL | CREATINE PHOSPHOKINASE [1]: 246 u/L | CREATININE [1]: 0.17 mg/dL | GLUCOSE [1]: 155 mg/dL | LACTATE DEHYDROGENASE [1]: 225.67 u/L | LIPASE [1]: 10 u/L | PHOSPHORUS [1]: 14.07 mg/dL | POTASSIUM [1]: 6.58 MEQ/L | SODIUM [1]: 145.07 MEQ/L | TOTAL BILIRUBIN [1]: 0.2 mg/dL | TOTAL PROTEIN [1]: 6.07 G/DL | URIC ACID [1]: 1.83 mg/dL | ABSOLUTE BASOPHIL [2]: 0 CELLS/uL | ABSOLUTE EOSINOPHIL [2]: 0 CELLS/uL | ABSOLUTE LYMPHOCYTE [2]: 10774 CELLS/uL | ABSOLUTE MONOCYTE [2]: 92 CELLS/uL | ABSOLUTE SEGMENTED NEUTROPHIL [2]: 2034 CELLS/uL | BASOPHIL [2]: 0% | EOSINOPHIL [2]: 0% | ERYTHROCYTE COUNT [2]: 5.74 x10E6/uL | HEMATOCRIT [2]: 35.7% | HEMOGLOBIN [2]: 14.13 G/DL | LEUKOCYTE COUNT [2]: 12.9 x10E3/uL | LYMPHOCYTE [2]: 83.67% | MEAN CORPUSCULAR HEMOGLOBIN [2]: 24.67 pg | MEAN CORPUSCULAR HEMOGLOBIN CONCENTRATION [2]: 39.57 G/DL | MEAN CORPUSCULAR VOLUME [2]: 62.33 fL | MONOCYTE [2]: 0.67% | NEUTROPHIL [2]: 15.67% | NUCLEATED RED BLOOD CELLS [2]: 0 /100WBC | PLATELET COUNT [2]: 1198 x10E3/uL | ALANINE AMINOTRANSFERASE [2]: 58.67 u/L | ALBUMIN [2]: 4.17 G/DL | ALKALINE PHOSPHATASE [2]: 364.67 u/L | ASPARTATE AMINOTRANSFERASE [2]: 90.67 u/L | BLOOD UREA NITROGEN [2]: 15 mg/dL | CARBON DIOXIDE [2]: 25.67 mmol/L | CHLORIDE [2]: 102 MEQ/L | CHOLESTEROL [2]: 61 mg/dL | CREATINE PHOSPHOKINASE [2]: 280.67 u/L | CREATININE [2]: 0.21 mg/dL | GLUCOSE [2]: 154 mg/dL | LACTATE DEHYDROGENASE [2]: 250.33 u/L | LIPASE [2]: 9.33 u/L | PHOSPHORUS [2]: 12.3 mg/dL | POTASSIUM [2]: 6.07 MEQ/L | SODIUM [2]: 144.43 MEQ/L | TOTAL BILIRUBIN [2]: 0.17 mg/dL | TOTAL PROTEIN [2]: 5.9 G/DL | URIC ACID [2]: 1.53 mg/dL | ABSOLUTE BASOPHIL [3]: 0 CELLS/uL | ABSOLUTE EOSINOPHIL [3]: 131 CELLS/uL | ABSOLUTE LYMPHOCYTE [3]: 11124 CELLS/uL | ABSOLUTE MONOCYTE [3]: 58.67 CELLS/uL | ABSOLUTE SEGMENTED NEUTROPHIL [3]: 1786.33 CELLS/uL | BASOPHIL [3]: 0% | EOSINOPHIL [3]: 1% | ERYTHROCYTE COUNT [3]: 5.38 x10E6/uL | HEMATOCRIT [3]: 32.57% | HEMOGLOBIN [3]: 12.97 G/DL | LEUKOCYTE COUNT [3]: 13.1 x10E3/uL | LYMPHOCYTE [3]: 84% | MEAN CORPUSCULAR HEMOGLOBIN [3]: 24.13 pg | MEAN CORPUSCULAR HEMOGLOBIN CONCENTRATION [3]: 39.83 G/DL | MEAN CORPUSCULAR VOLUME [3]: 60.57 fL | MONOCYTE [3]: 0.33% | NEUTROPHIL [3]: 14.67% | NUCLEATED RED BLOOD CELLS [3]: 0 /100WBC | PLATELET COUNT [3]: 1338.33 x10E3/uL | ALANINE AMINOTRANSFERASE [3]: 49.67 u/L | ALBUMIN [3]: 3.9 G/DL | ALKALINE PHOSPHATASE [3]: 293.67 u/L | ASPARTATE AMINOTRANSFERASE [3]: 92 u/L | BLOOD UREA NITROGEN [3]: 15.33 mg/dL | CARBON DIOXIDE [3]: 25.33 mmol/L | CHLORIDE [3]: 100 MEQ/L | CHOLESTEROL [3]: 71.33 mg/dL | CREATINE PHOSPHOKINASE [3]: 923.33 u/L | CREATININE [3]: 0.15 mg/dL | GLUCOSE [3]: 161 mg/dL | LACTATE DEHYDROGENASE [3]: 154.33 u/L | LIPASE [3]: 10.33 u/L | PHOSPHORUS [3]: 12.03 mg/dL | POTASSIUM [3]: 8.02 MEQ/L | SODIUM [3]: 142.27 MEQ/L | TOTAL BILIRUBIN [3]: 0.1 mg/dL | TOTAL PROTEIN [3]: 5.47 G/DL | URIC ACID [3]: 1.53 mg/dL | ABSOLUTE BASOPHIL [4]: 0 CELLS/uL | ABSOLUTE EOSINOPHIL [4]: 40.33 CELLS/uL | ABSOLUTE LYMPHOCYTE [4]: 11921 CELLS/uL | ABSOLUTE MONOCYTE [4]: 0 CELLS/uL | ABSOLUTE SEGMENTED NEUTROPHIL [4]: 1438.67 CELLS/uL | BASOPHIL [4]: 0% | EOSINOPHIL [4]: 0.33% | ERYTHROCYTE COUNT [4]: 5.89 x10E6/uL | HEMATOCRIT [4]: 34.97% | HEMOGLOBIN [4]: 14.13 G/DL | LEUKOCYTE COUNT [4]: 13.4 x10E3/uL | LYMPHOCYTE [4]: 89% | MEAN CORPUSCULAR HEMOGLOBIN [4]: 24.03 pg | MEAN CORPUSCULAR HEMOGLOBIN CONCENTRATION [4]: 40.43 G/DL | MEAN CORPUSCULAR VOLUME [4]: 59.4 fL | MONOCYTE [4]: 0% | NEUTROPHIL [4]: 10.67% | NUCLEATED RED BLOOD CELLS [4]: 0 /100WBC | PLATELET COUNT [4]: 1475.33 x10E3/uL | ALANINE AMINOTRANSFERASE [4]: 55 u/L | ALBUMIN [4]: 4.23 G/DL | ALKALINE PHOSPHATASE [4]: 354.33 u/L | ASPARTATE AMINOTRANSFERASE [4]: 79 u/L | BLOOD UREA NITROGEN [4]: 17.33 mg/dL | CARBON DIOXIDE [4]: 25.67 mmol/L | CHLORIDE [4]: 102 MEQ/L | CHOLESTEROL [4]: 64.67 mg/dL | CREATINE PHOSPHOKINASE [4]: 364.33 u/L | CREATININE [4]: 0.17 mg/dL | GLUCOSE [4]: 150 mg/dL | LACTATE DEHYDROGENASE [4]: 135.67 u/L | LIPASE [4]: 10 u/L | PHOSPHORUS [4]: 12.53 mg/dL | POTASSIUM [4]: 7.4 MEQ/L | SODIUM [4]: 145 MEQ/L | TOTAL BILIRUBIN [4]: 0.2 mg/dL | TOTAL PROTEIN [4]: 6.1 G/DL | URIC ACID [4]: 2.6 mg/dL
